{"source": "patent US12582657B2", "about": "“Combination therapy including a KRAS G12C inhibitor and one or more additional pharmaceutically active agents for the treatment of cancers” (Amgen Inc., priority 2018, dated 2026)", "key": {"KRAS^C118A": {"target": "T1, KRAS^C118A (Homo sapiens, UniProt P01116, C118A)", "T1 construct": "His-tagged human KRAS^C118A (1-169); made in house; host or cells: Escherichia coli (KRAS, c-RAF); Trichoplusia ni (SOS1)", "T1 sequence (P01116 1-169 isoform P01116-2 C118A)": "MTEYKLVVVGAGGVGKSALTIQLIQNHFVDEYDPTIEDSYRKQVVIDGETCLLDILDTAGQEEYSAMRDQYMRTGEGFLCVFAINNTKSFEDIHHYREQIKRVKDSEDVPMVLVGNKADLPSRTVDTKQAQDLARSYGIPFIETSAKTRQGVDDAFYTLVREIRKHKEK", "test": "SOS1-catalyzed coupled nucleotide exchange assay (Alpha)", "assay_type": "biochemical", "details": "wildtype at position 12", "description": "(§1) A cysteine-light mutant construct was used for co-crystallization studies based on the work of Ostrem et al^15.\n(§2) The inhibition of the SOS1-catalyzed nucleotide exchange activity of KRAS^G12C/C118A or KRAS^C118A was measured using Alpha (Amplified Luminescent Proximity Homogeneous Assay) technology. […] For all subsequent steps, DTT was added to the reaction buffer at a final concentration of 1 mM. […] Finally, c-RAF RBD (50 nM final), Alpha glutathione donor beads (PerkinElmer; 20 μg/mL final), and AlphaLISA® nickel chelate acceptor beads (PerkinElmer; 20 μg/mL final), all diluted in DTT-reaction buffer, were added. The reaction mixture was incubated at RT for 5 min, and then the plates were read on an EnVision® Multilabel Reader using the AlphaScreen protocol. […] Signal intensity corresponded with the association of c-RAF RBD with GTP-bound KRAS^G12C/C118A or KRAS^C118A and was normalized to DMSO control."}, "KRAS^G12C/C118A": {"target": "T2, KRAS^G12C/C118A (Homo sapiens, UniProt P01116, C118A/G12C)", "T2 construct": "Recombinant His-tagged human KRAS^G12C/C118A (1-169); made in house; host or cells: Escherichia coli (KRAS, c-RAF); Trichoplusia ni (SOS1)", "T2 sequence (P01116 1-169 isoform P01116-2 G12C/C118A)": "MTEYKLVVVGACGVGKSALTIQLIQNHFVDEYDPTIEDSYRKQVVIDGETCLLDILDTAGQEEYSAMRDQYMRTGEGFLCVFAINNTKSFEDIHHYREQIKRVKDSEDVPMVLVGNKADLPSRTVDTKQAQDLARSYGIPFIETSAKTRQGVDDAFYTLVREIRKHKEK", "test": "SOS1-catalyzed coupled nucleotide exchange assay (Alpha)", "assay_type": "biochemical", "description": "as §1, §2"}, "[1]": {"system": "ERK1/2 phosphorylation in CT-26 KRAS p.G12C tumors", "test": "Tumor pharmacodynamic assay (p-ERK, MSD immunoassay)", "details": "MEKi 10 mg/kg single oral dose; 2 hours"}, "[2]": {"system": "immune cells in CT-26 KRAS p.G12C tumors", "test": "Tumor immunophenotyping by flow cytometry", "assay_type": "in vivo, mouse", "details": "after 4 days of treatment"}, "MIA PaCa-2 (pancreas)": {"system": "MIA PaCa-2 (pancreas)", "test": "In vitro two-way combination matrix, growth inhibition, Loewe synergy score", "assay_type": "cell-based, human"}, "KRAS^G12C": {"target": "KRAS^G12C (Homo sapiens, UniProt P01116, G12C)", "sequence (P01116 1-188 isoform P01116-2 G12C)": "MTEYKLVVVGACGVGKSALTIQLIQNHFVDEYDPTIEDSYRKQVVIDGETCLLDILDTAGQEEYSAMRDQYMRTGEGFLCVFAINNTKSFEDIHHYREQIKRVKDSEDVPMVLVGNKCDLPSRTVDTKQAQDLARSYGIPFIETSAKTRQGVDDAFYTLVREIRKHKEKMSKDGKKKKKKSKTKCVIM", "test": "Cellular kinetics from time- and concentration-dependence of p-ERK inhibition", "assay_type": "cell-based", "details": "NCI-H358 cells", "description": "To provide an alternative estimate of the rate of GTP-hydrolysis by KRAS^G12C, a SHP2 inhibitor was employed to eliminate all upstream signaling to KRAS.\nTo determine the kinetic values of covalent inhibitor-KRAS^G12C adduct formation in cells, basal ERK1/2 phosphorylation levels were measured following treatment with various inhibitor concentrations at various incubation times exactly as described above, and % activity values were used for the kinetic calculations."}, "NCI-H358 tumors": {"system": "NCI-H358 tumors", "test": "Tumor xenograft efficacy study, single agent and combinations", "assay_type": "in vivo, mouse", "details": "AMG 510 10 or 30 mg/kg QD oral; carboplatin 50 or 100 mg/kg IP 1x/week"}}, "data": [{"molecule": "CCC(=O)N1CCN(c2nc(=O)n(-c3c(C)ccnc3C(C)C)c3nc(-c4c(O)cccc4F)c(F)cc23)[C@@H](C)C1", "note": "(atropisomer, axis not shown; (M)) [non-reactive analog of AMG 510, (M)-6-Fluoro-7-(2-fluoro-6-hydroxyphenyl)-1-(4-methyl-2-(2-propanyl)-3-pyridinyl)-4-((2S)-2-methyl-4-propanoyl-1-piperazinyl)pyrido[2,3-d]pyrimidin-2(1H)-one]", "values": [{"measurement": "inhibition of KRAS^C118A nucleotide exchange", "setting": "KRAS^C118A", "value": "minimal activity"}, {"measurement": "inhibition of KRAS^G12C/C118A nucleotide exchange", "setting": "KRAS^G12C/C118A", "value": "minimal activity"}]}, {"molecule": "O=C(NOC[C@H](O)CO)c1ccc(F)c(F)c1Nc1ccc(I)cc1F", "note": "[MEKi, N-(((2R)-2,3-dihydroxypropyl)oxy)-3,4-difluoro-2-((2-fluoro-4-iodophenyl)amino)benzamide]", "values": [{"measurement": "MAPK signaling in tumors", "setting": "[1]", "value": "blocked MAPK signaling downstream of RAS"}, {"measurement": "PD-1 expression on CD8+ T cells", "setting": "[2]", "value": "moderately increased"}, {"measurement": "T cell infiltration of tumors", "setting": "[2]", "value": "did not affect numbers of infiltrating CD8+ T cells"}, {"measurement": "infiltration of macrophages and dendritic cells", "setting": "[2]", "value": "not observed"}]}, {"molecule": "Cc1nc(N2CCC3(CC2)CO[C@@H](C)[C@H]3N)c(CO)nc1-c1cccc(Cl)c1Cl", "note": "[RMC-4550]", "values": [{"measurement": "single agent activity", "setting": "MIA PaCa-2 (pancreas)", "value": "lack of single agent activity"}, {"measurement": "cellular GTP hydrolysis rate from p-ERK inhibition by SHP2 inhibitor", "setting": "KRAS^G12C", "value": 0.00094, "unit": "s⁻¹"}]}, {"molecule": "N.N.O=C([O-])C1(C(=O)[O-])CCC1.[Pt+2]", "note": "[carboplatin]", "values": [{"measurement": "tumor growth, carboplatin combination study", "setting": "NCI-H358 tumors", "value": "significant tumor growth inhibition"}]}, {"molecule": "C#Cc1cccc(Nc2ncnc3cc(OCCOC)c(OCCOC)cc23)c1", "note": "[erlotinib]", "values": [{"measurement": "single agent activity", "setting": "MIA PaCa-2 (pancreas)", "value": "lack of erlotinib activity"}]}]}
